From ChEMBL document CHEMBL1150638, “An unusual sesquiterpene derivative from Ferula kuhistanica” (J Nat Prod, 2002)
Calls of active or inactive are those of the source. The calls are words filed in the database; no cut-off is given here.

Tests used:
Staphylococcus aureus [1] = test: Antibacterial activity against methicillin-resistant Staphylococcus aureus; format: functional, organism-based
Staphylococcus aureus [2] = test: Antibacterial activity against methicillin-sensitive Staphylococcus aureus; format: functional, organism-based
HCT-116 = test: Cytotoxicity against human HCT116 cells after 2 days by MTT assay; format: functional, cell-based; conditions: HCT-116, 48 h

## CC(=O)CC[C@@]1(C)CC[C@]2(C(C)C)O[C@@H](O)[C@H](OC(=O)c3ccc(O)cc3)[C@H]12 [KUHISTAFERONE]
Staphylococcus aureus [1]
  Activity: inactive
Staphylococcus aureus [2]
  Activity: inactive
HCT-116
  IC50: 181 µM
